Measurements from US8969549B2, “Antioxidant small molecules aimed at targeting metal-based oxidative stress in neurogenerative disorders” (Texas Christian University, priority 2013, dated 2015).

Legend:
[1] = DPPH radical quenching assay; type: biochemical
Excerpt: Compound 2 (Chart 2) exists largely as the pyridol tautomer as confirmed by NMR. The reactivity of pyridol/pyridone based compounds such as chelidamic acid have shown reactivity with OH radicals in solution to form bis-pyridones and is a different mechanism than pyridine based compounds such as 1 (Chart 2). This reactivity is attributed to the enhanced antioxidant capacity observed. Chelidamic acid is the pyridone congener to the starting material used to produce 1. Therefore similar methodologies to produce 2 in gram scale quantities were employed.
As radicals are one product of miscompartmentalized metal ions, radical scavenging capability of compounds 1-3 (Chart 4) was tested using the DPPH assay. DPPH (2,2-diphenyl-1-picrylhydrazyl), is a dark purple (λmax=540 nm), stable free radical in solution that can be reduced to DPPHH in the presence of molecules with radical scavenging activity. This process results in a color change from dark purple to light yellow and can be followed spectroscopically by the decrease of the band at 540 nm. Applicants have, therefore, utilized this method to measure radical scavenging capability of their own organic molecules. BHT (butylhydroxytoluene) was used as a positive control due to its known antioxidant properties.
DPPH stock solution was prepared by dissolving 25 mg in 100 mL of absolute EtOH. The working radical solution was prepared by dilution with absolute EtOH to an absorbance of 1.3 at 512 nm. Stock solutions of the compounds tested were dissolved in DI H2O and EtOH 95% respectively and serial dilutions were made to get different concentrations. For the analysis 2 mL of the solutions were incubated with 2 mL of DPPH working solutions in the dark for 24 h. as well as 2 mL of DPPH working solution with 2 mL of H2O or EtOH to serve as blank. Analysis of the solutions was performed as follows: 1 mL of the sample solution was diluted with 1 mL of H2O shaken and the absorbance was measured at 515 nm.

MTT cytotoxicity assay = type: cell-based; conditions: mouse, HT-22 hippocampal neuronal cells, HT-22 cells
Method: As these compounds show potential for future in vivo studies, the 3-(4,5-dimethythiazol-2-yl)-2,5-diphenyl tetrazolium bromide (MTT) assay was performed in order to test compounds 2, 3 of Chart 4 for cytotoxicity with HT-22 cells, which is a hippocampal neuronal cell line extracted from mice. This is a colorimetric assay that measures the mitochondrial activity of living cells in which MTT crosses into the mitochondria where it is reduced to media insoluble formazan (dark purple), which is later solubilized in DMSO and measured spectroscopically (λmax=540 nm). Since the reduction of MTT can only occur in living cells with undamaged mitochondria, this is a good assay to measure cell proliferation and cytotoxicity.
For the biological assays mouse hippocampal HT-22 cell line was used, incubated them at 37° C. in a humidified atmosphere 5% CO2, with Dulbecco's Modified Eagle Medium (500 ml) containing penicillin/streptomycin 100× (5 ml), Glutamine (100 mM, 5 ml), charcoal strip fetal bovine serum. […]
(3-(4,5-dimethylthiazol-2-yl)-2,5-diphenyltetrazolium bromide) cells were seeded in a 96 well plate with a density of 5000 cells per well (in 100 μL per well). […] Media is discarded again and 100 μL of DMSO are added to each well, rocked for 5 minutes and the absorbance (A510) was measured using a Molecular Devices Kinetic Microplate Reader.

[2] = log K constants with Cu^II; type: binding
Excerpt: (§1) The ligand is the backbone to PCTA, a potential MRI contrast agent explored in recent years and has been repurposed for Applicant's work.

[3] = log K constants with Zn^II; type: binding
Excerpt: as §1

[4] = ABTS radical assay standardized against Trolox; type: biochemical; conditions: ligand concentration 100 μM
FRDA cells [5] = assay: Calcein AM viability assay with BSO; type: cell-based, human; conditions: Homo sapiens, 48 hour BSO 1 mM; for viability at 0.001 µM: compound 1 nM final, read-out: cell viability compared to untreated control cells
Method: (§2) FIG. 5 is a graph showing a Calcien AM viability assay of FRDA cells after 48 hour exposure to BSO [1 mM] with 1-4 [1 nM final].
(§3) FIG. 10 is a graph showing Calcein AM viability assay of FRDA cells after 48 hour exposure to BSO [1 mM] followed by addition of 2 [various concentrations].
(§4) FRDA cells have higher levels of ROS due to mitochondrial misfunction associated with frataxin expression and therefore serve as a good model for ROS protection. […] Calcein AM, a non-fluorescent, hydrophobic compound that easily permeates intact, live cells, was used as an indicator for cell viability.
(§5) This dose response is visualized in the fluorescent cell images shown in FIG. 11 with increased cell survival corresponding to increasing 2 in the nM range.

[6] = Calcein AM viability assay with BSO; type: cell-based, human; conditions: human, FRDA cells (fibroblasts from a Friedreich's Ataxia patient), BSO 1 mM alone, read-out: cell viability compared to control cells, BSO-alone
Method: as §2, §3, §4, §5

FRDA cells [7] = assay: DCFH-DA ROS assay with BSO; type: cell-based, human
Method: FIG. 6 is a graph showing DCFH-DA fluorescent response in FRDA cells after 12 hours exposure to BSO [1 mM] with 1-4 [4 nM].
FIG. 7 is a graph of DCFH-DA fluorescent response in FRDA cells after 12 hours exposure to BSO [1 mM] showing dose dependence with 1.
FIG. 9 is a graph of DCFH-DA fluorescent response in FRDA cells after 12 hours exposure to BSO [1 mM] showing dose dependence with 1 and 2.
The antioxidant activity of compound 1 compared to compounds 2-3 (Chart 1) was then studied using the cell-permeable fluorophore 2,7′-Dichlorodihydrofluorescin diacetate (DCFH-DA) as an indicator for ROS. DCFH-DA diffuses into cells and is deacetylated by cellular esterases to non-fluorescent 2′,7′-Dichlorodihydrofluorescin (DCFH). This species is subsequently oxidized to the highly fluorescent 2′,7′-Dichlorodihydrofluorescein (DCF) species in the presence of ROS. The fluorescent intensity is directly proportional to the amount of ROS present in cell cytosol. BSO (2-amino-4-(butylsulfonimidoyl)butanoic acid) was used to inhibit the first step of de novo glutathione synthesis, allowing us to observe the elevated intra-cellular [ROS] are thereby observed.
Cellular studies were carried out to evaluate the intra-cellular antioxidant efficacy and toxicity of compound 2 (Chart 2) compared to 1 using the cell-permeable fluorophore 2,7′-dichlorodihydrofluorescin diacetate (DCFH-DA) as an indicator for ROS. DCFH-DA diffuses into cells and is deacetylated by cellular esterases to non-fluorescent 2′,7′-dichlorodihydrofluorescin (DCFH) which is subsequently oxidized to the highly fluorescent 2′,7′-dichlorodihydrofluorescein (DCF) species in the presence of ROS. The fluorescence intensity is directly proportional to the amount of ROS present in cell cytosol.^11 BSO (2-amino-4-(butylsulfonimidoyl)butanoic acid) is a commonly used model for oxidative stress via inhibition of cytosolic glutathione synthesis resulting in elevated intra-cellular [ROS] and an increased fluorescent signal in the presence of DCFH (FIG. 9).

Aβ1-40 [8] = assay: Turbidity assay of metal-induced amyloid aggregation; type: biochemical; conditions: for disaggregation of pre-formed metal-induced Aβ1-40 aggregates (turbidity): copper(II) or zinc(II) aggregates, ligand added afterwards
Excerpt: Metal ions (copper and zinc) bind to a histidine rich domain in amyloid producing Aβ in the form of insoluble plaques. This process has been comprehensively studied and described in a number of recent reviews. The aggregation of amyloid can be followed by simple spectroscopic techniques such as turbidity and tyrosine fluorescence studies. These methods were used to investigate the ability of 1 to dissociate pre-formed amyloid aggregates upon addition of metal ions, as well as prevent amyloid aggregation.
Metal ions bind to a histidine rich domain in amyloid producing Aβ in the form of insoluble plaques. This process has been extensively studied and described in a number of recent reviews.

Aβ1-40 [9] = assay: Tyr^10 fluorescence of Aβ1-40; type: biochemical
Excerpt: FIG. 2 is a graph showing the addition of ligands 1-4 to aggregated Aβ results in reconstitution of Tyr^10 fluorescence which was decreased due to aggregate formation.
To further determine the capability of 1 to prevent or disrupt metal-ion induced amyloid aggregation, Applicant's studied Tyr fluorescence intensity. Recent reports have also utilized the natural fluorescence of the native Tyr^10 in the Aβ1-40 sequence to study the conformational dynamics of amyloid folding as it relates to AD and/or production of H2O2. As Tyr^10 is located within proximity to the metal binding pocket in Aβ1-40 the fluorescence intensity of the phenolic side chain decreases during the folding process due to environmental changes that occur locally. This work was supported by circular dichroism spectra, which verified that fluorescence intensity decreased as the conformation of amyloid changed to beta-sheets. […] Applicant's hypothesis was that Tyr fluorescence intensity should be restored to control levels upon addition of compounds 1-4 (Chart 1) to a solution of pre-formed metal aggregates, as shown below in FIG. 2. […] Similar results were also obtained for amyloid samples co-incubated with 1-4 prior to metal ion addition.
The macrocyclic compound 2 (Chart 2) is also a chelator capable of preventing metal-induced amyloid formation as well as disaggregation. Metal ions bind to a histidine rich domain in amyloid producing Aβ in the form of insoluble plaques. This process has been extensively studied and described in a number of recent reviews. […] Moreover, amyloid aggregates formed by metal ion co-incubation can be disaggregated by the addition of compounds 1 or 2 (FIG. 12b).

[10] = LA/DHLA; cited from earlier work
[11] = Cu-ascorbate redox system with coumarin-3-carboxylic acid (CCA); type: biochemical; conditions: added after two minutes co-incubation with CCA
Excerpt: As increased levels of ROS are associated with AD, Applicant's set out to investigate the antioxidant character of 1 compared to the heterocycles 2 and/or 3. […] Moreover, many of the pathways proposed to produce ROS leading to AD pathology involve metal ions. Applicant's therefore utilized the Cu-ascorbate redox system, Scheme 1, as a model to determine if the ligands could halt copper based redox activity under aerobic conditions:
Faller and co-workers employed this system to investigate the redox chemistry of amyloid systems with Cu. Coumarin-3-carboxylic acid (CCA), which generates fluorescent 7-hydroxy-CCA in the presence of hydroxyl radicals, was used to quantify the reduction of oxygen by copper redox-cycling in the presence of ascorbate.

## O=C(NCCNc1nc(N2CCNCCNCCNCC2)nc(N2CCNCCNCCNCC2)n1)c1cc2ccccc2oc1=O [3 (Chart 4), N-(2-((4,6-di(1,4,7,10-tetraazacyclododecan-1-yl)-1,3,5-triazin-2-yl)amino)ethyl)-2-oxo-2H-chromene-3-carboxamide]
[1]; concentration dependent, concentrations not given
  quenching of the DPPH radical: 52-64%
MTT cytotoxicity assay
  EC50 at 48 h: 125 µM

## O=C(O)CN(CCN(CC(=O)O)CC(=O)O)CC(=O)O [4 (Chart 1)]
[2]
  log K constants Cu^II: 9.18
[3]
  log K constants Zn^II: 8.41
[4]
  Trolox equivalents (ABTS radical): 0.15 Trolox equivalents
FRDA cells [5]
  viability at 0.001 µM: > 60%

## CCCCS(=N)(=O)CCC(N)C(=O)O (centres unmarked) [BSO, 2-amino-4-(butylsulfonimidoyl)butanoic acid, reference compound]
[6]
  viability at 48 h, 1 mM: ~45%
FRDA cells [7]; BSO 1 mM alone
  increase in ROS, BSO-treated cells (positive control): ~1.8 fold

## C1CNCCNCCNCCN1 [Compound 2 (Chart 1)]
[2]
  log K constants Cu^II: 23
[3]
  log K constants Zn^II: 16
Aβ1-40 [8]
  disaggregation of pre-formed metal-induced Aβ1-40 aggregates (turbidity): Aβ dis-aggregating agents, which Applicant's studies corroborate
[4]
  Trolox equivalents (ABTS radical): 0.23 Trolox equivalents
FRDA cells [5]
  viability at 0.001 µM: > 60%

## Oc1cc2nc(c1)CNCCNCCNC2 [Compound 2 (Chart 2)]
Aβ1-40 [8]
  disaggregation of pre-formed metal-induced Aβ1-40 aggregates (turbidity): disaggregated
Aβ1-40 [8]; ligand co-incubated with amyloid before copper(II) or zinc(II) addition
  prevention of metal-induced Aβ1-40 aggregation (turbidity): prevents formation of aggregations
Aβ1-40 [9]; ligand added to pre-formed metal aggregates
  reconstitution of Tyr^10 fluorescence of aggregated Aβ1-40: equally effective
Aβ1-40 [9]; ligand co-incubated prior to metal ion addition, 24 hours
  prevention of loss of Tyr^10 fluorescence of Aβ1-40: equally effective
FRDA cells [5]; read-out: EC50 protection against BSO assault (Calcein AM)
  EC50: 0.0315 ± 0.00496 µM
FRDA cells [7]; 1.25 nM
  decrease of [ROS] compared to the untreated cells: 33%
FRDA cells [7]; 12.5 nM
  decrease of [ROS] compared to the untreated cells: 58%
FRDA cells [7]; 125 nM
  decrease of [ROS] compared to the untreated cells: 75%
FRDA cells [7]; 1.25 μM
  decrease of [ROS] compared to the untreated cells: 87%
[1]
  ability to reduce free radicals in solution (DPPH) versus 1: enhanced ability to reduce free radicals in solution

## O=C(O)CCCCC1CCSS1 (stereo not drawn) [LA, α-lipoic acid]
[10]
  redox potential: −320 mV

## C1CNCCNCCNCCN1 [cyclen, 1,4,7,10-tetraazacyclododecane, reference compound]
[1]; 1250 μM
  quenching of the DPPH radical: no activity

## Aβ1-40: beta-amyloid peptide 1-40 with histidine rich metal binding site [reference compound]
[11]
  7-hydroxy-CCA signal after addition to running Cu-ascorbate system: leveling of the 7-hydroxy-CCA signal
